From patent US9850283B2, “Macrocyclic inhibitors of the PD-1/PD-L1 and CD80(B7-1)/PD-L1 protein/protein interactions” (BRISTOL-MYERS SQUIBB COMPANY, priority 2013, dated 2017)
Read-outs that look alike come from different tables or passages of the source. Positions of bridges follow the written chain, without caps; N, C: chain ends. Non-standard residues stand in square brackets, D forms with d. Residues, ends and D or L forms follow the SMILES beside them. Phe(4-CH2NH2) = NCc1ccc(C[C@H](N)C(=O)O)cc1; pY = N[C@@H](Cc1ccc(OP(=O)(O)O)cc1)C(=O)O; Phe(4-Cl) = N[C@@H](Cc1ccc(Cl)cc1)C(=O)O; Bta = N[C@@H](Cc1csc2ccccc12)C(=O)O; NMeF = CN[C@@H](Cc1ccccc1)C(=O)O; NMeNle = CCCC[C@H](NC)C(=O)O; Sar = CNCC(=O)O

Columns and labels:
Human PD-L1/PD-1 = target: T1, Human PD-L1/PD-1 (Homo sapiens, UniProt Q9NZQ7); assay: HTRF PD-1-Ig/PD-L1-His binding assay (human PD-L1); details: cluster symbol
T1 construct: made in house; host or cells: HEK293T
In short: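 Readout: time-resolved FRET between Eu cryptate-labeled anti-Ig (1 nM final) and APC-labeled anti-His (20 nM final) antibodies. These detect interaction of Fc-fused PD-1 with His-tagged human PD-L1 in dPBS containing 0.1% BSA and 0.05% Tween-20.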

[1] = target: T2, LK35.2-hPD-L1 cells / PE-labeled PD-1-Ig (Homo sapiens, UniProt Q9NZQ7); assay: LK35.2-hPD-L1 cell binding high-content screening assay; type: cell-based; details: cluster symbol, cell line of CBA not given (LK35.2-hPD-L1 or 293T-hPD-L1)
T2 construct: expressed in transfected cells; host or cells: LK35.2 mouse B cell line
In short: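 Mouse LK35.2 B cells stably overexpressing human PD-L1 were cultured overnight in RPMI with 10% FCS, then given compound and PE-labeled human PD-1-Ig (1 nM final) for 1 h at 37 °C. After three dPBS washes, bound fluorescence was quantified by high-content imaging.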

T1 sequence (Q9NZQ7 with tags, fused parts or gaps): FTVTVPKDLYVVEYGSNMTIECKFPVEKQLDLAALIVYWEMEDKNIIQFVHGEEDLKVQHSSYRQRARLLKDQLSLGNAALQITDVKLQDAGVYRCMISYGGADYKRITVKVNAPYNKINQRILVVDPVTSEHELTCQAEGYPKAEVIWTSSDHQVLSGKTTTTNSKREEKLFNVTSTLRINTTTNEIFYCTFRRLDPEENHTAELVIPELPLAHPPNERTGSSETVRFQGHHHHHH
T2 sequence (Q9NZQ7 19-290): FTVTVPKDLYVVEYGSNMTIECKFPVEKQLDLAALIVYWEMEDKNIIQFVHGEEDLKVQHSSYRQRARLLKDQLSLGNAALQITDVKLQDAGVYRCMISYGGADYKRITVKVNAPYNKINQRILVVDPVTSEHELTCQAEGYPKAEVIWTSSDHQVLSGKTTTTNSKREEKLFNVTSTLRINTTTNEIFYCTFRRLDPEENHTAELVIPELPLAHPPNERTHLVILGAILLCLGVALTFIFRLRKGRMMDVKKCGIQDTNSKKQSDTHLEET

| Compound | IC50 (Human PD-L1/PD-1; read-out: HTRF IC50 cluster) | IC50 ([1]; read-out: CBA IC50 cluster) | IC50 (Human PD-L1/PD-1; HTRF IC50 cluster) | IC50 ([1]; CBA IC50 cluster) |
| --- | --- | --- | --- | --- |
| CCCC[C@H]1C(=O)N(C)CC(=O)N[C@@H](CC(=O)O)C(=O)N[C@@H](C(C)C)C(=O)N(C)[C@@H](Cc2cnc[nH]2)C(=O)N[C@@H](Cc2ccc(O)cc2)C(=O)N(C)CC(=O)N[C@@H](Cc2c[nH]c3ccccc23)C(=O)N[C@@H](Cc2ccc(O)cc2)C(=O)N[C@@H](CC(C)C)C(=O)N[C@H](C(=O)NCC(N)=O)CSCC(=O)N[C@@H](Cc2ccccc2)C(=O)N(C)[C@@H](Cc2ccccc2)C(=O)N1C [Example 3057] (HELM PEPTIDE1{[O=C(C[*:3])[*:2]].F.[meF].[CCCC[C@@H](C(=O)[*:2])N(C)[*:1]].[Sar].D.V.[meH].Y.[Sar].W.Y.L.C.G.[am]}$PEPTIDE1,PEPTIDE1,1:R3-14:R3$$$V2.0) | > 0.0305 µM | > 0.0743 µM |  |  |
| CCCC[C@H]1C(=O)N(C)CC(=O)N[C@@H](CC(=O)O)C(=O)N[C@@H](C(C)C)C(=O)N(C)[C@@H](Cc2cnc[nH]2)C(=O)N[C@@H](Cc2ccc(O)cc2)C(=O)N(C)CC(=O)N[C@@H](Cc2c[nH]c3ccccc23)C(=O)N[C@@H](Cc2ccc(O)cc2)C(=O)N[C@@H](CC(C)C)C(=O)N[C@H](C(=O)NCC(N)=O)CSCC(=O)N[C@@H](Cc2ccccc2)C(=O)N(C)[C@@H](Cc2cnc[nH]2)C(=O)N1C [Example 3058-A] (HELM PEPTIDE1{[O=C(C[*:3])[*:2]].F.[meH].[CCCC[C@@H](C(=O)[*:2])N(C)[*:1]].[Sar].D.V.[meH].Y.[Sar].W.Y.L.C.G.[am]}$PEPTIDE1,PEPTIDE1,1:R3-14:R3$$$V2.0) | > 0.0305 µM | > 0.0743 µM |  |  |
| CCCC[C@H]1C(=O)N(C)CC(=O)N[C@@H](CC(=O)O)C(=O)N[C@@H](C(C)C)C(=O)N(C)[C@@H](Cc2ccccc2)C(=O)N[C@@H](Cc2ccc(O)cc2)C(=O)N(C)CC(=O)N[C@@H](Cc2c[nH]c3ccccc23)C(=O)N[C@@H](Cc2ccc(O)cc2)C(=O)N[C@@H](CC(C)C)C(=O)N[C@H](C(=O)NCC(N)=O)CSCC(=O)N[C@@H](Cc2ccccc2)C(=O)N(C)[C@@H](Cc2ccc(O)cc2)C(=O)N1C [Example 3059] (HELM PEPTIDE1{[O=C(C[*:3])[*:2]].F.[meY].[CCCC[C@@H](C(=O)[*:2])N(C)[*:1]].[Sar].D.V.[meF].Y.[Sar].W.Y.L.C.G.[am]}$PEPTIDE1,PEPTIDE1,1:R3-14:R3$$$V2.0) | 0.00676 to 0.0303 µM | 0.00478 to 0.0729 µM |  |  |
| CC(C)C[C@@H]1NC(=O)[C@H](Cc2ccc(O)cc2)NC(=O)[C@H](Cc2c[nH]c3ccccc23)NC(=O)CN(C)C(=O)[C@H](Cc2ccc(O)cc2)NC(=O)[C@H](Cc2ccccc2)N(C)C(=O)[C@H](C(C)C)NC(=O)[C@H](CC(=O)O)NC(=O)CN(C)C(=O)[C@H](Cc2ccc(O)cc2)N(C)C(=O)[C@H](Cc2ccccc2)N(C)C(=O)[C@H](Cc2ccccc2)NC(=O)CSC[C@@H](C(=O)NCC(N)=O)NC1=O [Example 3060-A] (HELM PEPTIDE1{[O=C(C[*:3])[*:2]].F.[meF].[meY].[Sar].D.V.[meF].Y.[Sar].W.Y.L.C.G.[am]}$PEPTIDE1,PEPTIDE1,1:R3-14:R3$$$V2.0) | 0.00676 to 0.0303 µM | 0.00478 to 0.0729 µM |  |  |
| CC(C)C[C@@H]1NC(=O)[C@H](Cc2ccc(O)cc2)NC(=O)[C@H](Cc2c[nH]c3ccccc23)NC(=O)CN(C)C(=O)[C@H](Cc2ccc(O)cc2)NC(=O)[C@H](Cc2ccccc2)N(C)C(=O)[C@H](C(C)C)NC(=O)[C@H](CC(=O)O)NC(=O)CN(C)C(=O)[C@H](Cc2ccc(O)cc2)N(C)C(=O)[C@H](Cc2ccccc2)N(C)C(=O)[C@H](Cc2ccccc2)NC(=O)CSC[C@@H](C(=O)NCC(N)=O)NC1=O [Example 3060-B] (HELM PEPTIDE1{[O=C(C[*:3])[*:2]].F.[meF].[meY].[Sar].D.V.[meF].Y.[Sar].W.Y.L.C.G.[am]}$PEPTIDE1,PEPTIDE1,1:R3-14:R3$$$V2.0) | > 0.0305 µM | > 0.0743 µM |  |  |
| CC(C)C[C@@H]1NC(=O)[C@H](Cc2ccc(O)cc2)NC(=O)[C@H](Cc2c[nH]c3ccccc23)NC(=O)CN(C)C(=O)[C@H](Cc2ccc(O)cc2)NC(=O)[C@H](Cc2ccccc2)N(C)C(=O)[C@H](C(C)C)NC(=O)[C@H](CC(=O)O)NC(=O)CN(C)C(=O)[C@H](CCC(=O)O)N(C)C(=O)[C@H](Cc2ccccc2)N(C)C(=O)[C@H](Cc2ccccc2)NC(=O)CSC[C@@H](C(=O)NCC(N)=O)NC1=O [Example 3061] (HELM PEPTIDE1{[O=C(C[*:3])[*:2]].F.[meF].[meE].[Sar].D.V.[meF].Y.[Sar].W.Y.L.C.G.[am]}$PEPTIDE1,PEPTIDE1,1:R3-14:R3$$$V2.0) | 0.00676 to 0.0303 µM | > 0.0743 µM |  |  |
| CCCC[C@H]1C(=O)N(C)CC(=O)N[C@@H](CC(=O)O)C(=O)N[C@@H](C(C)C)C(=O)N(C)[C@@H](Cc2ccccc2)C(=O)N[C@@H](Cc2ccc(O)cc2)C(=O)N(C)CC(=O)N[C@@H](Cc2csc3ccccc23)C(=O)N[C@@H](Cc2ccc(O)cc2)C(=O)N[C@@H](CC(C)C)C(=O)N[C@H](C(=O)NCC(N)=O)CSCC(=O)N[C@@H](Cc2ccccc2)C(=O)N(C)[C@@H](Cc2ccccc2)C(=O)N1C [Example 3062] ({CH2CO}-F[NMeF][NMeNle][Sar]DV[NMeF]Y[Sar][Bta]YLCG-NH2; thioether N-13) | 0.000385 to 0.00674 µM | 0.00478 to 0.0729 µM |  |  |
| CCCC[C@H]1C(=O)N(C)CC(=O)N[C@@H](CC(=O)O)C(=O)N[C@@H](C(C)C)C(=O)N(C)[C@@H](Cc2ccccc2)C(=O)N[C@@H](Cc2ccc(O)cc2)C(=O)N(C)CC(=O)N[C@@H](Cc2c[nH]c3ccccc23)C(=O)N[C@@H](Cc2ccc(O)cc2)C(=O)N[C@@H](CC(C)C)C(=O)N[C@H](C(=O)NCC(N)=O)CSCC(=O)N[C@@H](Cc2ccc(CN)cc2)C(=O)N(C)[C@@H](Cc2ccccc2)C(=O)N1C [Example 3063] ({CH2CO}-[Phe(4-CH2NH2)][NMeF][NMeNle][Sar]DV[NMeF]Y[Sar]WYLCG-NH2; thioether N-13) | > 0.0305 µM | > 0.0743 µM |  |  |
| CCCC[C@H]1C(=O)N(C)CC(=O)N[C@@H](CC(=O)O)C(=O)N[C@@H](C(C)C)C(=O)N(C)[C@@H](Cc2ccccc2)C(=O)N[C@@H](Cc2ccc(O)cc2)C(=O)N(C)CC(=O)N[C@@H](Cc2c[nH]c3ccccc23)C(=O)N[C@@H](Cc2ccc(O)cc2)C(=O)N[C@@H](CC(C)C)C(=O)N[C@H](C(=O)NCC(N)=O)CSCC(=O)N[C@@H](Cc2ccccc2)C(=O)N(C)[C@@H](CCC(=O)O)C(=O)N1C [Example 3064] (HELM PEPTIDE1{[O=C(C[*:3])[*:2]].F.[meE].[CCCC[C@@H](C(=O)[*:2])N(C)[*:1]].[Sar].D.V.[meF].Y.[Sar].W.Y.L.C.G.[am]}$PEPTIDE1,PEPTIDE1,1:R3-14:R3$$$V2.0) | 0.00676 to 0.0303 µM | > 0.0743 µM |  |  |
| CCCC[C@H]1C(=O)N(C)CC(=O)N[C@@H](CC(=O)O)C(=O)N[C@@H](C(C)C)C(=O)N(C)[C@@H](Cc2ccccc2)C(=O)N[C@@H](Cc2ccc(O)cc2)C(=O)N(C)CC(=O)N[C@@H](Cc2c[nH]c3ccccc23)C(=O)N[C@@H](Cc2ccc(O)cc2)C(=O)N[C@@H](CC(C)C)C(=O)N[C@H](C(=O)NCC(N)=O)CSCC(=O)N[C@@H](Cc2ccc(O)cc2)C(=O)N(C)[C@@H](Cc2ccccc2)C(=O)N1C [Example 3065] (HELM PEPTIDE1{[O=C(C[*:3])[*:2]].Y.[meF].[CCCC[C@@H](C(=O)[*:2])N(C)[*:1]].[Sar].D.V.[meF].Y.[Sar].W.Y.L.C.G.[am]}$PEPTIDE1,PEPTIDE1,1:R3-14:R3$$$V2.0) | > 0.0305 µM | > 0.0743 µM |  |  |
| CCCC[C@H]1C(=O)N(C)CC(=O)N[C@@H](CC(=O)O)C(=O)N[C@@H](C(C)C)C(=O)N(C)[C@@H](Cc2ccccc2)C(=O)N[C@@H](Cc2ccc(O)cc2)C(=O)N(C)CC(=O)N[C@@H](Cc2c[nH]c3ccccc23)C(=O)N[C@@H](Cc2ccc(O)cc2)C(=O)N[C@@H](CC(C)C)C(=O)N[C@H](C(=O)NCC(N)=O)CSCC(=O)N[C@@H](Cc2ccc(OP(=O)(O)O)cc2)C(=O)N(C)[C@@H](Cc2ccccc2)C(=O)N1C [Example 3066] ({CH2CO}-[pY][NMeF][NMeNle][Sar]DV[NMeF]Y[Sar]WYLCG-NH2; thioether N-13) |  |  | > 0.0305 µM | > 0.0743 µM |
| CCCC[C@H]1C(=O)N(C)CC(=O)N[C@@H](CC(=O)O)C(=O)N[C@@H](C(C)C)C(=O)N(C)[C@@H](Cc2ccccc2)C(=O)N[C@@H](Cc2ccc(O)cc2)C(=O)N(C)CC(=O)N[C@@H](Cc2c[nH]c3ccccc23)C(=O)N[C@@H](Cc2ccc(O)cc2)C(=O)N[C@@H](CC(C)C)C(=O)N[C@H](C(=O)NCC(N)=O)CSCC(=O)N[C@@H](Cc2ccc(Cl)cc2)C(=O)N(C)[C@@H](Cc2ccccc2)C(=O)N1C [Example 3067] ({CH2CO}-[Phe(4-Cl)][NMeF][NMeNle][Sar]DV[NMeF]Y[Sar]WYLCG-NH2; thioether N-13) | 0.000385 to 0.00674 µM | 0.000158 to 0.00471 µM |  |  |
| CCCC[C@H]1C(=O)N2CCC[C@H]2C(=O)N[C@@H](CC(=O)O)C(=O)N[C@@H](C(C)C)C(=O)N(C)[C@@H](Cc2ccccc2)C(=O)N[C@@H](Cc2ccc(O)cc2)C(=O)N(C)CC(=O)N[C@@H](Cc2c[nH]c3ccccc23)C(=O)N[C@@H](Cc2ccc(O)cc2)C(=O)N[C@@H](CC(C)C)C(=O)N[C@H](C(=O)NCC(N)=O)CSCC(=O)N[C@@H](Cc2ccccc2)C(=O)N(C)[C@@H](Cc2ccccc2)C(=O)N1C [Example 3068] (HELM PEPTIDE1{[O=C(C[*:3])[*:2]].F.[meF].[CCCC[C@@H](C(=O)[*:2])N(C)[*:1]].P.D.V.[meF].Y.[Sar].W.Y.L.C.G.[am]}$PEPTIDE1,PEPTIDE1,1:R3-14:R3$$$V2.0) | > 0.0305 µM | > 0.0743 µM |  |  |
